Laboratory results reported in ChEMBL document CHEMBL1147516, “Synthesis and evaluation of lasonolide A analogues” (2004).

Key:
Assay type in all cases: functional
Conditions in all cases: Homo sapiens
[1] = tested on: A549; assay: Growth inhibition against A549 cell line was evaluated
[2] = tested on: NCI-H46; assay: Growth inhibition against NCI-H460 cell line was evaluated
[3] = tested on: HCT-116; assay: Growth inhibition against HCT116 cell line was evaluated

| Compound | GI50 [1] [nM] | GI50 [2] [nM] | GI50 [3] [nM] |
| --- | --- | --- | --- |
| CCOC(=O)[C@H](O)C/C=C\C[C@@H]1O[C@@H]2/C=C/C/C=C/C(C)=C\[C@H]3O[C@@H](C/C=C/C=C/C(=O)O[C@H](C2)[C@@]1(C)CO)C[C@H](O)[C@H]3C [LASONOLIDE E] | 7 | 15 | 100 |
| C=C(CCC(C)C)COC(=O)[C@H](O)C/C=C\C[C@@H]1O[C@@H]2/C=C/C/C=C/C(C)=C\[C@H]3O[C@@H](C/C=C/C=C/C(=O)O[C@H](C2)[C@@]1(C)CO)C[C@H](O)[C@H]3C [LASONOLIDE A] | 15 | < 3 | 3 |

Now from value to compound:

| GI50 [1] [nM] | GI50 [2] [nM] | GI50 [3] [nM] | Compound |
| --- | --- | --- | --- |
| 100 | 65 | 45 | C=C(CCC(C)C)COC(=O)[C@H](O)C/C=C\C[C@@H]1O[C@@H]2/C=C/C/C=C/C(C)=C\[C@@H]3C[C@@H](O)C[C@H](C/C=C/C=C/C(=O)O[C@H](C2)[C@@]1(C)CO)O3 |
| 200 | 170 | 190 | CCCCCCCCCCCCOC(=O)[C@H](O)C/C=C\C[C@@H]1O[C@@H]2/C=C/C/C=C/C(C)=C\[C@H]3O[C@@H](C/C=C/C=C/C(=O)O[C@H](C2)[C@@]1(C)CO)C[C@H](O)[C@H]3C |
| 800 | 1000 | 1800 | C=C(CCC(C)C)COC(=O)[C@H](O)C/C=C\C[C@@H]1O[C@@H]2/C=C/C/C=C/C(C)=C\[C@H]3O[C@@H](C/C=C/C=C/C(=O)O[C@H](C2)[C@@]1(C)CCO)C[C@H](O)[C@H]3C |
